Experimental data reported in patent US9498463B2, “Compound obtained from gamboge resin, and medical uses of the same” (priority 2010, dated 2016).
Converted amounts (≈) assume the structure as drawn.

Key:
[1] = system: Human lung carcinoma cell A549; assay: cells
Description: (§1) In Vitro Anti-Cancer Test
(§2) The in vitro anti-cancer test was primarily used to detect the effect of a candidate drug on cancer cell proliferation. The working principle involved therein is the ability of viable cells to shift alamarBlue (AbD Serotec, UK) from its originally non-fluorescent oxidized state (non-fluorescent, blue) to a reduced form (fluorescent, red) having fluorescence via metabolic reaction. According to the fluorescent data result generated by the alamarBlue reagent thus obtained, the proliferation of the viable cells and cell activity can be quantified for detection.
(§3) In the in vitro anti-cancer tests, a candidate drug was tested at 5 different concentrations of 0.01, 0.1, 1, 10, and 100 μg/ml, and six human cancer cell lines and a normal human cell line were used (see Table 5).

in vitro = assay: in vitro
Description: as §1, §2, §3

[2] = system: Human promyelocytic leukemia cell HL-60; assay: cells
Description: as §1, §2, §3

[3] = system: Human histocytic lymphoma cell U937; assay: cells
Description: as §1, §2, §3

[4] = system: Human hepatocellular carcinoma cell HepG2; assay: cells
Description: as §1, §2, §3

[5] = system: Human breast adenocarcinoma cell MCF7; assay: cells; settings: Homo sapiens
Description: as §1, §2, §3

[6] = system: Human umbilical venal epithelial cell (HUVEC); assay: cells; settings: Homo sapiens, HUVEC, read-out: IC50 (50% inhibition concentration)
Description: as §1, §2, §3

[7] = system: Human colon adenocarcinoma cell HT-29; assay: cells
Description: as §1, §2, §3

caspases = settings: cited from earlier work

Question: Which IC50 ([1]; A549, read-out: IC50 (50% inhibition concentration)) does the source give for `CC(C)=CCC/C(C)=C/Cc1c(O)c(CC=C(C)C)c2c(c1O)C(=O)C1=C[C@@H]3CC4C(C)(C)O[C@](C/C=C(\C)C(=O)O)(C3=O)[C@@]14O2` [Gh-2642, isogambogenic acid] here?
Answer: 1.5 µg/mL (≈ 2.38 µM)

Question: What about the CC50 ([1]; A549, read-out: LC50 (50% lethal concentration)) of the same compound?
Answer: 4.6 µg/mL (≈ 7.29 µM)

Question: And the CC50 (in vitro)?
Answer: 11 µg/mL (≈ 17.4 µM)

Question: And the IC50 ([2]; HL-60, read-out: IC50 (50% inhibition concentration))?
Answer: 9 µg/mL (≈ 14.3 µM)

Question: And the CC50 ([2]; HL-60, read-out: LC50 (50% lethal concentration))?
Answer: 32 µg/mL (≈ 50.7 µM)

Question: What about the IC50 ([3]; U-937, read-out: IC50 (50% inhibition concentration)) of the same compound?
Answer: 1.3 µg/mL (≈ 2.06 µM)

Question: What about the CC50 ([3]; U-937, read-out: LC50 (50% lethal concentration)) of the same compound?
Answer: 4.1 µg/mL (≈ 6.5 µM)

Question: What about the IC50 ([4]; HepG2, read-out: IC50 (50% inhibition concentration)) of the same compound?
Answer: 11 µg/mL (≈ 17.4 µM)

Question: And the CC50 ([4]; HepG2, read-out: LC50 (50% lethal concentration))?
Answer: 29 µg/mL (≈ 46 µM)

Question: And the IC50 ([5]; MCF7, read-out: IC50 (50% inhibition concentration))?
Answer: 3 µg/mL (≈ 4.76 µM)

Question: And the CC50 ([5]; MCF7, read-out: LC50 (50% lethal concentration))?
Answer: 10 µg/mL (≈ 15.9 µM)

Question: And the IC50 [6]?
Answer: 2.4 µg/mL (≈ 3.8 µM)

Question: What about the IC50 ([7]; HT-29, read-out: IC50 (50% inhibition concentration)) of the same compound?
Answer: 12 µg/mL (≈ 19 µM)

Question: And the CC50 ([7]; HT-29, read-out: LC50 (50% lethal concentration))?
Answer: 42 µg/mL (≈ 66.6 µM)

Question: Which “activator of caspases and inducer of apoptosis” value (caspases) does the source give for `COC(=O)/C(C)=C\CC12OC(C)(C)C3CC(C=C4C(=O)c5c(O)c6c(c(CC=C(C)C)c5OC431)OC(C)(CCC(O)C(C)(C)O)C=C6)C2=O` (stereo not drawn) [methyl 37,38-dihydroxy-gambogate] here?
Answer: activator of caspases and an inducer of apoptosis
